We go through 29 molecules from patent US5135955A, “Propanamine derivatives” (Eli Lilly and Company, priority 1989, dated 1992).

In the assay the test system is thromboplastin clotting time in human plasma. Description: prothrombin time test (thromboplastin clotting time in human plasma). The settings on record: for plasma prothrombin time: 37° C., human plasma. It is filed as biochemical. The procedure: Briefly, to 0.1 ml of each of human plasma, normal saline and thromboplastin was added 0.03 ml of the test compound of the present invention (2 mg/ml in 50 percent methanol). The clotting time was measured at 37° C. with a Fibrometer.
^a Expressed in seconds
^b Concentration of compound tested in micrograms per milliliter of […]

Setting [1] is: 11 micrograms per milliliter of plasma.
Setting [2] is: 22 micrograms per milliliter of plasma.
The mark [3] stands for this setting: 45 micrograms per milliliter of plasma.
[4] abbreviates: 90 micrograms per milliliter of plasma.
Setting [5] is: 180 micrograms per milliliter of plasma.
Where [6] appears, read: 45 micrograms per milliliter of plasma, hydrochloride.
Where [7] appears, read: 90 micrograms per milliliter of plasma, hydrochloride.

Counter-ions that a name gives are not always drawn.

On to `CCCCOc1ccc(CCC(C)N2CCCC2)cc1.Cl` (stereo not shown) [Example 77, 1-[3-[4-(Butoxy)phenyl]-1-methylpropyl]-pyrrolidine hydrochloride], for which the plasma prothrombin time is, setting by setting: under setting [1], 15 s; under setting [2], 16 s; under setting [3], 23 s; under setting [4], 24 s; under setting [5], 53 s.
For `CCCCC(CC)COc1ccc(CC(CN)c2ccccc2)cc1.Cl` (stereo not drawn) [Example 3, 4-[(2-Ethylhexyl)oxy]-β-phenylbenzenepropanamine hydrochloride], the prothrombin time is, setting by setting: (28 micrograms per ml) 16 s; (69 micrograms per ml) 25 s; (139 micrograms per ml) 80 s.
For the molecule `CC(CCc1ccc(OCCC(C)(C)C)cc1)N(C)C.Cl` (stereo not drawn) [Example 79, 4-(3,3-Dimethylbutoxy)-N,N,α-trimethylbenzenepropanamine hydrochloride], the plasma prothrombin time by setting is: (11 micrograms per milliliter of plasma, hydrochloride) 19 s; (22 micrograms per milliliter of plasma, hydrochloride) 21 s; under setting [6], 31 s; under setting [7], 55 s; under setting [5], 90 s.
As for `CCCCCCCCCOc1ccc(CCC(C)NCCN2CCOCC2)cc1` (stereo not shown) [Example 53, N-[1-Methyl-3-[4-(nonyloxy)phenyl]propyl]-4-morpholineethanamine dihydrochloride], the plasma prothrombin time is, setting by setting: under setting [3], 23 s; under setting [4], 53 s; under setting [5], 240 s.
For `Cl.NCC(Cc1ccc2c(c1)OCO2)c1ccccc1` (stereo not drawn) [Example 34, β-Phenyl-1,3-benzodioxole-5-propanamine hydrochloride], the plasma prothrombin time under setting [5] is 21 s.
As for `CCCCCCCCOc1ccc(CC(CN)c2ccc(OC)c(OC)c2)cc1` (stereo not drawn) [Example 17, 4-(Octyloxy)-β-(3,4-dimethoxy)phenylbezenenepropanamine hydrochloride], the plasma prothrombin time was 21 s under setting [2], 48 s under setting [3], 81 s under setting [4] and 240 s under setting [5].
For `Cl.NCC(Cc1ccc(-c2ccccc2)cc1)c1ccccc1` (stereo not drawn) [Example 7, β-Phenyl[1,1'-biphenyl]-4-propanamine hydrochloride], in that order: 25 s, 36 s, 200 s and greater than 300 s.
For `CCCCCCOc1ccc(CC(CNCC)c2ccccc2)cc1` (stereo not drawn) [Example 28, N-Ethyl-4-(hexyloxy)-β-phenylbenzenepropanamine], in that order: 17 s, 23 s, 35 s and 110 s.
In the case of `COc1ccc(C(CN)Cc2cccc3ccccc23)cc1` (stereo not drawn) [Example 24, β-(4-Methoxy)phenyl-1-naphthalenepropanamine], the plasma prothrombin time is 22 s under setting [3], 28 s under setting [4] and 48 s under setting [5].
For `CCCCCCCCCCOc1ccc(CCC(C)N)cc1` (stereo not drawn) [Example 50, 4-(Decyloxy)-α-methylbenzenepropanamine hydrochloride], in that order: 21 s, 36 s and 100 s.
`CCCCCCOc1ccc(CC(CN)c2ccc3ccccc3c2)cc1.Cl` (stereo not drawn) [Example 10, β-[[4-(Hexyloxy)phenyl]methyl]-2-naphthaleneethanamine hydrochloride] displayed a plasma prothrombin time under setting [5] of 60 s.
Turning to `NC(CCc1ccc(OCC2CCCCC2)cc1)C1CC1` (stereo not drawn) [Example 37, 4-(Cyclohexylmethoxy)-α-cyclopropylbenzenepropanamine hydrochloride], the plasma prothrombin time under setting [1] is 22 s.
For `CCCCCOc1ccc(CC(CN)c2ccc(OC)c(OC)c2OC)cc1` (stereo not drawn) [Example 19, 4-(Pentyloxy)-β-(2,3,4-trimethoxy)phenylbenzenepropanamine hydrochloride], the plasma prothrombin time under setting [5] is 174 s.
As to `CC(CCc1ccc(OCc2ccc(F)cc2)cc1)N(C)C.Cl` (stereo not drawn) [Example 82, 4-[(4-Fluorophenyl)methoxy]-N,N,α-trimethylbenzenepropanamine hydrochloride], the plasma prothrombin time runs as follows: under setting [1], 18 s; under setting [2], 19 s; under setting [3], 24 s; under setting [4], 29 s; under setting [5], 75 s.
On to `CCCCCCCCCOc1ccc(CCC(C)NCCN(C)C)cc1` (stereo not shown) [Example 54, N,N-Dimethyl-N'-[1-methyl-3-[4-(nonyloxy)phenyl]propyl]-1,2-ethanediamine dihydrochloride], for which the plasma prothrombin time under setting [3] turned out to be 37 s, the plasma prothrombin time under setting [4] came out at 99 s and the plasma prothrombin time under setting [5] was greater than 300 s.
Turning to `CCCCCCCOc1ccc(CCC(C)NCCN(C)C)cc1` (stereo not shown) [Example 49, N'-[3-[4-(Heptyloxy)phenyl]-1-methylpropyl]-N,N-dimethyl-1,2-ethanediamine dihydrochloride], the plasma prothrombin time runs as follows: under setting [1], 22 s; under setting [2], 34 s; under setting [3], 36 s; under setting [4], 167 s; under setting [5], 260 s.
Consider `CCCCCCCOc1ccc(CC(CN)c2ccc(OC)c(OC)c2)cc1` (stereo not drawn) [Example 20, 4-(Heptyloxy)-β-(3,4-dimethoxy)phenylbenzenepropanamine], for which the plasma prothrombin time is, setting by setting: under setting [3], 36 s; under setting [4], 74 s; under setting [5], greater than 200 s.
Under setting [5], `COc1ccc(C(CN)Cc2ccc(-c3ccccc3)cc2)cc1` (stereo not drawn) [Example 9, β-(4-Methoxy)phenyl[1,1'-biphenyl]-4-propanamine] showed a plasma prothrombin time of 25 s.
Turning to `CCCCOc1ccc(CC(C)CN(C)C)cc1.Cl` (stereo not drawn) [Example 78, 4-Butoxy-N,N,β-trimethylbenzenepropanamine hydrochloride], the plasma prothrombin time came out at 23 s under setting [3], 31 s under setting [4] and 67 s under setting [5].
`CCCCCCOc1ccc(CC(CNCCN(C)C)c2cc(OC)c(OC)c(OC)c2)cc1.Cl.Cl` (stereo not shown) [Example 31, N'-[3-[4-(Hexyloxy)phenyl]-2-(3,4,5-trimethoxyphenyl)-propyl]-N,N-dimethyl-1,2-ethanediamine dihydrochloride] came in with a plasma prothrombin time under setting [5] of 150 s.
The molecule `NCC(Cc1ccc(C(F)(F)F)cc1)c1ccccc1` (stereo not drawn) [Example 35, β-Phenyl-4-(trifluoromethyl)benzenepropanamine] came in with a plasma prothrombin time under setting [5] of 68 s.
In turn, `CNCC(Cc1ccc2c(c1)OCO2)c1ccccc1.Cl` (stereo not drawn) [Example 33, N-Methyl-β-phenyl-1,3-benzodioxole-5-propanamine hydrochloride] had a plasma prothrombin time under setting [5] of 18 s.
For `CCC(CCc1ccc(OCC2CCCCC2)cc1)N(C)C` (stereo not drawn) [Example 38, 4-(Cyclohexylmethoxy)-α-ethyl-N,N-dimethylbenzenepropanamine hydrochloride], the plasma prothrombin time under setting [1] is 22 s.
For the molecule `CCCCCCCCCCCCOc1ccc(CCC(C)NCCN(C)C)cc1` (stereo not shown) [Example 52, N'-[3-[4-(Dodecyloxy)phenyl]-1-methylpropyl]-N,N-dimethyl-1,2-ethanediaminedihydrochloride], the plasma prothrombin time worked out at 20 s under setting [4] and 87 s under setting [5].
As for `CC(CCc1ccc(OCC2CCCC2)cc1)N(C)C` (stereo not drawn) [Example 80, 4-Cyclopentylmethoxy-N,N-α-trimethylbenzenepropanamine hydrochloride], the plasma prothrombin time reads like this: under setting [1], 17 s; under setting [2], 19 s; under setting [6], 24 s; under setting [7], 43 s; (180 micrograms per milliliter of plasma, hydrochloride) 88 s.
As to `CCCCCCCOc1ccc(CCC(C)N)cc1` (stereo not drawn) [Example 51, 4-(Heptyloxy)-α-methylbenzenepropanamine hydrochloride], the plasma prothrombin time was 25 s under setting [3], 52 s under setting [4] and greater than 300 s under setting [5].
The like results for `Cl.NCC(Cc1ccc2c(c1)OCO2)c1ccc(-c2ccccc2)cc1` (stereo not drawn) [Example 32, β-[1,1'-Biphenyl]-4-yl-1,3-benzodioxole-5-propanamine hydrochloride] were, in that order, 27 s, 66 s and 222 s.
The molecule `CCCCCCCCOc1ccc(CC(CN)c2cc(OC)c(OC)c(OC)c2)cc1` (stereo not drawn) [Example 18, 4-(Octyloxy)-β-(3,4,5-trimethoxy)phenylbenzenepropanamine hydrochloride] showed a plasma prothrombin time under setting [5] of 125 s.
Consider `CCCCCOc1ccc(CC(CN)c2ccc(OC)c(OC)c2)cc1` (stereo not drawn) [Example 15, 4-(Pentyloxy)-β-3,4-(dimethoxy)phenylbenzenepropanamine], for which the plasma prothrombin time worked out at 21 s under setting [3], 30 s under setting [4] and 80 s under setting [5].
